Assay results as given in ChEMBL document CHEMBL1131651, “Discovery of LB30057, a benzamidrazone-based selective oral thrombin inhibitor” (Bioorg Med Chem Lett, 1998).

Tests used:
Prothrombin [1] = target: Prothrombin (Bos taurus, UniProt P00735)
Description: Compound was tested for inhibitory activity against bovine thrombin

[2] = Half life was evaluated in dog; type: ADME, organism-based, Canis lupus familiaris; details: in vivo
Prothrombin [3] = target: Prothrombin (Homo sapiens, UniProt P00734); assay: Compound was tested for inhibitory activity against human thrombin
[4] = Compound was tested for percent of oral bioavailability at 10 […] dose in dogs; type: ADME, organism-based, Canis lupus familiaris; details: dog, in vivo, read-out: Bioavailabiility
Plasminogen = Plasminogen (Homo sapiens, UniProt P00747); assay: The compound was tested for inhibitory activity against human plasmin
Coagulation factor X = Coagulation factor X (Homo sapiens, UniProt P00742); assay: The compound was tested for inhibitory activity against Coagulation factor X
[5] = target: Tissue-type plasminogen activator (Homo sapiens, UniProt P00750); assay: The compound was tested for inhibitory activity against tissue plasminogen activator
Sequence of Tissue-type plasminogen activator (P00750 whole entry): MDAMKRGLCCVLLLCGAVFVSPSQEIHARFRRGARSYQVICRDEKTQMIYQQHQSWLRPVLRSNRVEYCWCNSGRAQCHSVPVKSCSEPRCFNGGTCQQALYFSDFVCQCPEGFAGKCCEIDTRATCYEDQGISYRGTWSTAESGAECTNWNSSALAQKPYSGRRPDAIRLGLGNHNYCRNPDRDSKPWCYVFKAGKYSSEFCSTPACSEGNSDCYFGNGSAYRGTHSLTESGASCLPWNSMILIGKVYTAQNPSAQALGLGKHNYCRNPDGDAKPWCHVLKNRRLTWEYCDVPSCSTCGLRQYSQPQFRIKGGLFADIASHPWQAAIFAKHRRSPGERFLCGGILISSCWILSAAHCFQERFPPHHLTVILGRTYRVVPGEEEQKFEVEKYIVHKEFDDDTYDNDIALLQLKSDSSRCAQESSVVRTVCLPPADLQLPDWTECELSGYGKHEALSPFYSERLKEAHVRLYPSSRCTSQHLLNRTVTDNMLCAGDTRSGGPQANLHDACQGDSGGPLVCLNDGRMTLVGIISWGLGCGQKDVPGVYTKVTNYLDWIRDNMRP

Sequence of Plasminogen (P00747 97-580 limits assumed): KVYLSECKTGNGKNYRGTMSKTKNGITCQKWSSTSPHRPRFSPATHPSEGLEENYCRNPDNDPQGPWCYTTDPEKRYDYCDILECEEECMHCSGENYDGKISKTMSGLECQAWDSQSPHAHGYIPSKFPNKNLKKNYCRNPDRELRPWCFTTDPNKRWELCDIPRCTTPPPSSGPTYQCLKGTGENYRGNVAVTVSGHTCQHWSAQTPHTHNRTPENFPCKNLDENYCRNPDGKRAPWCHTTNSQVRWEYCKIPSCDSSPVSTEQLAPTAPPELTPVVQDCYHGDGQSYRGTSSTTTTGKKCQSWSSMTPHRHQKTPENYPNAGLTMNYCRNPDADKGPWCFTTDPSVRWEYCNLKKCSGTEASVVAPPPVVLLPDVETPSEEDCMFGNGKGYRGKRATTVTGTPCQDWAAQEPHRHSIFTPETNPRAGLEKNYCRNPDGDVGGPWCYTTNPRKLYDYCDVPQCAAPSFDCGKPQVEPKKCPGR
Sequence of Plasminogen (P00747 581-810 limits assumed): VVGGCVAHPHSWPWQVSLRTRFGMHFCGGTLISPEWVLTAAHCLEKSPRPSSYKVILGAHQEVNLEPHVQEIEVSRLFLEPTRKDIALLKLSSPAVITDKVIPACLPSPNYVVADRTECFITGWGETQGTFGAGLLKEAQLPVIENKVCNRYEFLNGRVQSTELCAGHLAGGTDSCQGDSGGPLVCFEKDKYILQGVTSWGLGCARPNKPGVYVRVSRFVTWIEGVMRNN
Sequence of Coagulation factor X (P00742 41-179 limits assumed): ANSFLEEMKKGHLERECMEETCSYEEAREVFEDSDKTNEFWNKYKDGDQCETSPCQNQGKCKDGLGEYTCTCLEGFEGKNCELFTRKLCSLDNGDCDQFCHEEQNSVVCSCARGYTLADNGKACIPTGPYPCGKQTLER
Sequence of Coagulation factor X (P00742 235-488 limits assumed): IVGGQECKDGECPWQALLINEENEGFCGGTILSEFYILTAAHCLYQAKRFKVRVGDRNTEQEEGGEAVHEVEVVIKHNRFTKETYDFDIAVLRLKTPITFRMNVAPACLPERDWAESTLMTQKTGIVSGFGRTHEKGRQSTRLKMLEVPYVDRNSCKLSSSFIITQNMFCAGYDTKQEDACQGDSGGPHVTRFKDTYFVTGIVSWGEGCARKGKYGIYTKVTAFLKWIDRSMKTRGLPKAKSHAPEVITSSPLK

| Structure (SMILES) | Ki (Prothrombin [1]) [µM] | half-life [2] [h] | Ki (Prothrombin [3]) [µM] | bioavailability [4] [%] | Ki (Plasminogen) [µM] | Ki (Coagulation factor X) [µM] | Ki [5] [µM] |
| --- | --- | --- | --- | --- | --- | --- | --- |
| NN=C(N)c1ccc(C[C@H](NS(=O)(=O)c2ccc3ccccc3c2)C(=O)N(CCO)C2CCCC2)cc1 | 7.04 | – | – | – | – | – | – |
| CCN(C(=O)[C@H](Cc1ccc(C(=N)NN)cc1)NS(=O)(=O)c1ccc2ccccc2c1)C1CCCC1 | 0.004 | – | – | – | – | – | – |
| N=C(NN)c1ccc(C[C@H](NS(=O)(=O)c2ccc3ccccc3c2)C(=O)N2CCCCCC2)cc1 | 1.47 | – | – | – | – | – | – |
| CN(C(=O)[C@H](Cc1ccc(C(=N)NN)cc1)NS(=O)(=O)c1ccc2ccccc2c1)C1CCCC1 | 0.0011 | 1.87 | 0.00038 | 58 | 47.9 | 1.1 | 27.2 |
